Measurements: patent US20070158611A1, “Compositions comprising nanorods and methods of making and using them” (priority 2005, published 2007)

System: Acidovorax delafieldii (ATCC #17505)
Test: Bactericidal properties of silver nanofluids, colony count on NB agar plates
Assay type: cell-based
Description: The addition of nanostructures to fluids can prevent bacterial growth. The bactericidal properties of spherical silver colloid and silver nanorods was measured and compared with the bactericidal properties of silver nitrate. Lyophilized Acidovorax delafieldii (ATCC #17505) bacterium was reconstituted in Difco Nutrient Broth (NB), streaked onto NB agar plates and incubated for 24 hours at 37° C. A single colony was isolated and used to inoculate an NB culture that was grown to mid-log phase where the visibly cloudy solution has an optical density of 0.3 at a wavelength of 600 nm. 10 μL of this preculture (˜2.3×10^4 CFU/mL) was mixed with 5 mL of NB medium that contained 0.2 mg/mL, 0.02 mg/mL, 2 μg/mL, 0.02 μg/mL, and 0.002 μg/mL concentrations of either silver nitrate (AgNO3), silver colloid, or silver nanorods. […] Viable cells were enumerated by the colony count method on NB agar plates.

O=[N+]([O-])[O-].[Ag+] [AgNO3, silver nitrate]
biocide activity compared with other silver samples (28 hours, 37° C.): highest biocide activity
CFU/mL (Acidovorax delafieldii in NB after 28 hours of incubation at 37° C., sample concentration as in Sample cell (text: 0.2 μg/mL Ag)): 1.2 × 10^3 CFU/mL
